Target: NACHT, LRR and PYD domains-containing protein 3 (Homo sapiens, UniProt Q96P20)
Test: Binding affinity to human recombinant NLRP3 inflammasome

Chain of NACHT, LRR and PYD domains-containing protein 3 (Q96P20 whole entry, the tested form may be a part): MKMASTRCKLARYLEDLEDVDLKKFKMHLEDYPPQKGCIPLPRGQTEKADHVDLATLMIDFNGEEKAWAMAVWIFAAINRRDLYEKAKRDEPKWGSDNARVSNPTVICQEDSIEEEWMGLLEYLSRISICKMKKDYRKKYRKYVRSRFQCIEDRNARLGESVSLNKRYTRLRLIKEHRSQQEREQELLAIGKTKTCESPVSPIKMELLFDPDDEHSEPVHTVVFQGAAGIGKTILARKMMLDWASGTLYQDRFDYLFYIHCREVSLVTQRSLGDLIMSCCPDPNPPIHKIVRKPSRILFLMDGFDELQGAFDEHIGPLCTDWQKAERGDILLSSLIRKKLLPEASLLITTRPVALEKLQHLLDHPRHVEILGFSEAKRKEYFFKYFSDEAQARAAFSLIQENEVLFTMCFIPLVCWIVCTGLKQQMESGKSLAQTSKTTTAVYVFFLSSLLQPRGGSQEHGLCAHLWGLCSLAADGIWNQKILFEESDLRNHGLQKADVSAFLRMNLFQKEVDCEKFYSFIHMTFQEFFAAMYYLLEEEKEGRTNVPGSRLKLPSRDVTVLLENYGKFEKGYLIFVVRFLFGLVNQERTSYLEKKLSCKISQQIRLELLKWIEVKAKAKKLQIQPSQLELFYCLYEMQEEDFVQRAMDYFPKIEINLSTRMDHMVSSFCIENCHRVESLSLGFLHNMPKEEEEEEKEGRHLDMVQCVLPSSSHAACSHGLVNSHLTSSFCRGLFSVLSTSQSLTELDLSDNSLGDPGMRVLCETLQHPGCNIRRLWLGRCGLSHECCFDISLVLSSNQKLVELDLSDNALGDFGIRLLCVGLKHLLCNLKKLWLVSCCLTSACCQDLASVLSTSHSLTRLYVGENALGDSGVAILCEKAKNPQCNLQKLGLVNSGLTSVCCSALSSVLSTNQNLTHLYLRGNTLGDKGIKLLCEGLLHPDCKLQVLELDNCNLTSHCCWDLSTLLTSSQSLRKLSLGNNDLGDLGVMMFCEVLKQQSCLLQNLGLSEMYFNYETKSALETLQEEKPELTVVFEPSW

Row | Kd | SMILES
1 | 860 nM | COC(=O)c1ccc(-c2cn(Cc3cc(Cl)ccc3OC)nn2)nc1
2 | 980 nM | COc1ccc(Cl)cc1Cn1cc(C(=O)N2CC(F)(F)C2)nn1
3 | 3000 nM | COc1ccc(Cl)cc1Cn1cc(-c2ccc(C(=O)N3CCC3)cc2)nn1

From ChEMBL document CHEMBL5344460, “Advancements in Predictive Medicine: NLRP3 Inflammasome Inhibitors and AI-Driven Predictive Health Analytics” (ACS Med Chem Lett, 2024)
